From ChEMBL document CHEMBL4270624, “Synthesis and antibacterial evaluation of 13-substituted cycloberberine derivatives as a novel class of anti-MRSA agents” (Eur J Med Chem, 2018)

How the values were obtained:
Staphylococcus aureus [1] = assay: Antibacterial activity against methicillin-resistant Staphylococcus aureus 13-23 clinical isolate after 18 hrs by agar dilution method; type: functional; details: 13-23, 18 h
[2] = Stability of the compound in Sprague-Dawley rat whole blood assessed as parent compound remaining after 1 hr by LC-MS/MS analysis; type: ADME, tissue-based; details: read-out: Stability
[3] = AUC (0 to t) in Sprague-Dawley rat at 1 mg/kg, iv administered as single dose; type: ADME, organism-based; details: in vivo
[4] = Cmax in Sprague-Dawley rat at 5 mg/kg, po administered as single dose; type: ADME, organism-based; design: dose 5 mg/kg, route oral; details: in vivo
[5] = Oral bioavailability in Sprague-Dawley rat at 5 mg/kg administered as single dose; type: ADME, organism-based; details: in vivo
[6] = Stability of the compound in Sprague-Dawley rat whole blood assessed as parent compound remaining after 24 hrs by LC-MS/MS analysis; type: ADME, tissue-based; details: read-out: Stability
Staphylococcus aureus [7] = assay: Antibacterial activity against methicillin-resistant Staphylococcus aureus 16-34 clinical isolate after 18 hrs by agar dilution method; type: functional; details: 16-34, 18 h
Staphylococcus aureus [8] = assay: Antibacterial activity against methicillin-resistant Staphylococcus aureus ATCC BAA-1708 after 18 hrs by agar dilution method; type: functional; details: ATCC BAA-1708, 18 h
Staphylococcus aureus [9] = assay: Antibacterial activity against methicillin-resistant Staphylococcus aureus ATCC BAA-976 after 18 hrs by agar dilution method; type: functional; details: ATCC BAA-976, 18 h
Staphylococcus aureus [10] = assay: Antibacterial activity against methicillin-resistant Staphylococcus aureus 13-18 clinical isolate after 18 hrs by agar dilution method; type: functional; details: 13-18, 18 h
[11] = Half life in Sprague-Dawley rat at 5 mg/kg, po administered as single dose; type: ADME, organism-based; details: in vivo
Staphylococcus aureus [12] = assay: Antibacterial activity against methicillin-sensitive Staphylococcus aureus ATCC 29213 after 18 hrs by agar dilution method; type: functional; details: ATCC 29213, 18 h
Staphylococcus aureus [13] = assay: Antibacterial activity against methicillin-resistant Staphylococcus aureus ATCC 43300 after 18 hrs by agar dilution method; type: functional; details: ATCC 43300, 18 h
Staphylococcus aureus [14] = assay: Antibacterial activity against methicillin-resistant Staphylococcus aureus ATCC 33591 after 18 hrs by agar dilution method; type: functional; details: ATCC 33591, 18 h
[15] = Mean residence time (0 to t) in Sprague-Dawley rat at 1 mg/kg, iv administered as single dose; type: ADME, organism-based; details: in vivo
[16] = Tmax in Sprague-Dawley rat at 5 mg/kg, po administered as single dose; type: ADME, organism-based; details: in vivo
[17] = Mean residence time (0 to t) in Sprague-Dawley rat at 5 mg/kg, po administered as single dose; type: ADME, organism-based; details: in vivo
Staphylococcus aureus [18] = assay: Antibacterial activity against methicillin-resistant Staphylococcus aureus 16-30 clinical isolate after 18 hrs by agar dilution method; type: functional; details: 16-30, 18 h
[19] = Half life in Sprague-Dawley rat at 1 mg/kg, iv administered as single dose; type: ADME, organism-based; details: in vivo
[20] = Toxicity in iv dosed Kunming mouse administered as single dose measured for 7 days; type: organism-based; details: in vivo
[21] = AUC (0 to t) in Sprague-Dawley rat at 5 mg/kg, po administered as single dose; type: ADME, organism-based; details: in vivo
Staphylococcus aureus [22] = assay: Antibacterial activity against methicillin-sensitive Staphylococcus aureus 16-1 clinical isolate after 18 hrs by agar dilution method; type: functional; details: 16-1, 18 h
[23] = Stability of the compound in Sprague-Dawley rat whole blood assessed as parent compound remaining after 0.5 hrs by LC-MS/MS analysis; type: ADME, tissue-based; details: read-out: Stability

SMILES | MIC (Staphylococcus aureus [1]) | MIC (Staphylococcus aureus [7]) | MIC (Staphylococcus aureus [8]) | MIC (Staphylococcus aureus [9]) | MIC (Staphylococcus aureus [10]) | MIC (Staphylococcus aureus [12]) | MIC (Staphylococcus aureus [13]) | MIC (Staphylococcus aureus [14]) | MIC (Staphylococcus aureus [18]) | MIC (Staphylococcus aureus [22]) | also measured
COc1ccc2c(c[n+]3c4c2cc(Cc2ccccc2C)c2c5c(cc(c24)CC3)OCO5)c1OC.[Br-] | 2 µg/mL | 2 µg/mL | 2 µg/mL | 1 µg/mL | 2 µg/mL | 4 µg/mL | 2 µg/mL | 2 µg/mL | 4 µg/mL | 2 µg/mL | remaining at 1 h [2]: 94.2%; AUC(0-t) [3]: 724 ng·h/mL; Cmax [4]: 11.7 ng/mL; bioavailability [5]: 0.8%; remaining at 24 h [6]: 80.9%; half-life [11]: 1.5 h; MRT last [15]: 4.3 h; Tmax [16]: 1 h; MRT last [17]: 2.1 h; half-life [19]: 7.2 h; LD50 at 168 h [20]: 65.6 mg/kg; AUC(0-t) [21]: 28.3 ng·h/mL
COc1ccc2c(c[n+]3c4c2cc(C(C)c2ccccc2)c2c5c(cc(c24)CC3)OCO5)c1OC.[Br-] (configuration not stated) | 2 µg/mL | 2 µg/mL | 4 µg/mL | 1 µg/mL | 2 µg/mL | 2 µg/mL | 4 µg/mL | 2 µg/mL | 2 µg/mL | 2 µg/mL | remaining at 1 h [2]: 91.2%; remaining at 24 h [6]: 77.3%; LD50 at 168 h [20]: 41.2 mg/kg
CCOC(=O)[C@H](CCc1ccccc1)N[C@@H](C)C(=O)N1CCC[C@H]1C(=O)O [ENALAPRIL] |  |  |  |  |  |  |  |  |  |  | remaining at 1 h [2]: 10.9%; remaining at 0.5 h [23]: 42.9%
COc1ccc2c(c[n+]3c4c2cc(Cc2ccc(F)c(C(F)(F)F)c2)c2c5c(cc(c24)CC3)OCO5)c1OC.[Br-] | 32 µg/mL | 64 µg/mL | 32 µg/mL | 32 µg/mL | 16 µg/mL | 32 µg/mL | 32 µg/mL | 32 µg/mL | 16 µg/mL | 8 µg/mL | 
COc1ccc2c(c[n+]3c4c2cc(Cc2ccc(F)cc2F)c2c5c(cc(c24)CC3)OCO5)c1OC.[Br-] | 4 µg/mL | 2 µg/mL | 4 µg/mL | 4 µg/mL | 4 µg/mL | 4 µg/mL | 8 µg/mL | 4 µg/mL | 2 µg/mL | 2 µg/mL | 
COC(=O)C(c1ccccc1)c1cc2c3ccc(OC)c(OC)c3c[n+]3c2c2c(cc4c(c12)OCO4)CC3.[Br-] (configuration not stated) | > 64 µg/mL | > 64 µg/mL | > 64 µg/mL | > 64 µg/mL | > 64 µg/mL | > 64 µg/mL | > 64 µg/mL | > 64 µg/mL | > 64 µg/mL | > 64 µg/mL | 
COc1ccc2c(c[n+]3c4c2cc(Cc2ccncc2)c2c5c(cc(c24)CC3)OCO5)c1OC.[Br-] | 32 µg/mL | 64 µg/mL | 64 µg/mL | 64 µg/mL | 64 µg/mL | 64 µg/mL | 64 µg/mL | 64 µg/mL | 64 µg/mL | 64 µg/mL | 
COc1ccc2c(c[n+]3c4c2cc(Cc2ccc(Cl)cc2)c2c5c(cc(c24)CC3)OCO5)c1OC.[Br-] | 8 µg/mL | 4 µg/mL | 32 µg/mL | 8 µg/mL | 8 µg/mL | 8 µg/mL | 32 µg/mL | 8 µg/mL | 4 µg/mL | 8 µg/mL | 
COc1ccc2c(c[n+]3c4c2cc(Cc2cccnc2)c2c5c(cc(c24)CC3)OCO5)c1OC.[Br-] | 32 µg/mL | 32 µg/mL | 32 µg/mL | 16 µg/mL | 32 µg/mL | 16 µg/mL | > 64 µg/mL | 32 µg/mL | 32 µg/mL | 16 µg/mL | 
COc1ccc2c(Cc3ccccc3)c3[n+](cc2c1OC)CCc1cc2c(cc1-3)OCO2.[Br-] | 32 µg/mL | 64 µg/mL | 32 µg/mL | 32 µg/mL | 32 µg/mL | 32 µg/mL | 64 µg/mL | 64 µg/mL | 64 µg/mL | 16 µg/mL | 
COc1ccc2c(c[n+]3c4c2cc(Cc2cccc(C)c2)c2c5c(cc(c24)CC3)OCO5)c1OC.[Br-] | 4 µg/mL | 2 µg/mL | 4 µg/mL | 2 µg/mL | 4 µg/mL | 2 µg/mL | 4 µg/mL | 4 µg/mL | 2 µg/mL | 2 µg/mL | 
COc1ccc2c(c[n+]3c4c2cc(Cc2ccc(C(C)C)cc2)c2c5c(cc(c24)CC3)OCO5)c1OC.[Br-] | 32 µg/mL | 16 µg/mL | 32 µg/mL | 16 µg/mL | 32 µg/mL | 8 µg/mL | 32 µg/mL | 8 µg/mL | 16 µg/mL | 8 µg/mL | 
COc1ccc2c(c[n+]3c4c2cc(Cc2ccc(SC(F)(F)F)cc2)c2c5c(cc(c24)CC3)OCO5)c1OC.[Br-] | > 64 µg/mL | > 64 µg/mL | > 64 µg/mL | > 64 µg/mL | > 64 µg/mL | > 64 µg/mL | > 64 µg/mL | > 64 µg/mL | > 64 µg/mL | > 64 µg/mL | 
COc1ccc2c(c[n+]3c4c2ccc2c5c(cc(c24)CC3)OCO5)c1OC.[Br-] | > 64 µg/mL | > 64 µg/mL | > 64 µg/mL | > 64 µg/mL | > 64 µg/mL | > 64 µg/mL | > 64 µg/mL | > 64 µg/mL | > 64 µg/mL | > 64 µg/mL | 
C[C@H]1COc2c(N3CCN(C)CC3)c(F)cc3c(=O)c(C(=O)O)cn1c23.C[C@H]1COc2c(N3CCN(C)CC3)c(F)cc3c(=O)c(C(=O)O)cn1c23.O [LEVOFLOXACIN] | 32 µg/mL | 32 µg/mL | 8 µg/mL | 0.125 µg/mL | 32 µg/mL | 0.125 µg/mL | 0.125 µg/mL | 0.125 µg/mL | 32 µg/mL | 0.125 µg/mL | 
COc1ccc2c(c[n+]3c4c2cc(Cc2ccc([N+](=O)[O-])cc2)c2c5c(cc(c24)CC3)OCO5)c1OC.[Br-] | > 64 µg/mL | > 64 µg/mL | > 64 µg/mL | > 64 µg/mL | > 64 µg/mL | > 64 µg/mL | > 64 µg/mL | > 64 µg/mL | > 64 µg/mL | > 64 µg/mL | 
COc1ccc2c(c[n+]3c4c2cc(Cc2ccc(Br)cc2)c2c5c(cc(c24)CC3)OCO5)c1OC.[Br-] | 16 µg/mL | 16 µg/mL | 64 µg/mL | 16 µg/mL | 16 µg/mL | 16 µg/mL | 32 µg/mL | 16 µg/mL | 16 µg/mL | 16 µg/mL | 
